Test results reported in patent US20150133493A1, “COUMARIN-BASED COMPOUNDS FOR THE TREATMENT OF ALZHEIMER'S DISEASE AND CANCER” (Sloan-Kettering Institute for Cancer Research, priority 2008, published 2015).

Columns and labels:
[1] = system: cells stably transfected with APP; test: Cell-based assay for production of Aβ38, Aβ40 and Aβ42 peptides (Example 29, FIG. 1); details: increasing concentrations of compound
Experimental: The following cell-based assay can be used for assessing inhibitory activity of test compounds on γ-secretase activity on APP expressed in stably transfected cells. Cells such as HEK239 or N2A cells that stably express APP are incubated 24-48 hr. in medium to which is added γ-secretase with or without test compound. The conditioned medium is collected. Secreted Aβ peptides are detected by electrochemiluminescence (ECL) technology as previously described, for example, in Li et al., 2000, Proc. Nat'l Acad. Sci. USA 97:6183-643; Lai et al., 2003, J. Biol. Chem. 278: 22475-22481; and Yin et al., 2007, J. Biol. Chem. 282:23639-23644. Concentration of Aβ peptides can be calculated from standard curves that are generated using synthetic peptides using the ECL assay.
Results of a cell-based assay are provided in FIG. 1 in which cells stably transfected with APP were incubated in medium containing γ-secretase activity and the indicated amounts of compound 37.

γ-secretase [2] = target: T1, γ-secretase (Homo sapiens, UniProt P49768); test: In vitro γ-secretase activity assay, Aβ40 production (ECL); assay type: biochemical
T1 construct: endogenous in cells
Experimental: (§1) FIG. 2. In vitro characterization of coumarin-dimer allosteric GSIs against various γ-secretase cleavage products. The potency of 7 unique coumarin-based γ-secretase inhibitors were evaluated for efficacy against γ-secretase-mediated production of Aβ40, Aβ42, Aβ38, and Notch. Additionally, the pan-GSI Compound E was also examined in these assays. The IC50 values were calculated from the dose response curves using a non-linear regression analysis in Prism software. IC50 values are presented with standard deviation (n=3 for each data point). The three β-amyloid-detection in vitro assays were modified from our previously reported assay (21) using a biotinylated substrate that eliminated the requirement of anti-β-amyloid biotinylated antibody. Ruthenylated antibodies that detected the -40, -42, or -38 cleavage site were incorporated to detect proteolysis indicative of γ-secretase activity. In vitro Notch assay utilized a recombinant transmembrane portion of the Notch peptide and anti-Notch1 SM320 antibody in conjunction with ruthenylated anti-rabbit secondary antibodies. Electrochemiluminescence was quantified on an Analyzer (BioVeris). The selectivity ratio for Aβ42 inhibition over Aβ40 and Notch are indicated in the two far right columns.
The assay protocol employed was a modified version of that described in Li et al., 2000, Proc. Nat'l Acad. Sci. USA 97:6183-643, incorporated herein by reference. Briefly, recombinant peptide substrate was incubated with γ-secretase (40 μg/ml) in the presence or absence of test compound. The reaction mixture contained 0.25% CHAPSO, 0.1 μg/μl BSA, protease inhibitor, 50 mM PIPES, pH 7.0, 5 mM MgCl2, 5 mM CaCl2 and 150 mM KCl. The reaction was incubated for 2.5 hr at 37° C. and stopped by adding RIPA buffer (150 mM NaCl, 1.0% NP-40, 0.5% sodium deoxycholate, 0.1% SDS, 50 mM Tris HCl, pH 8.0). The products were detected with various antibody combinations using electrochemiluminescence (ECL) technology as previously described in Li et al., 2000, Proc. Nat'l Acad. Sci. USA 97:6183-643; Lai et al., 2003, J. Biol. Chem. 278: 22475-22481; and Yin et al., 2007, J. Biol. Chem. 282:23639-23644. The amount of product was determined using synthetic peptide or recombinant standards.
(§2) Cell membranes and solubilized γ-secretase were prepared as described previously (36). The in vitro and cell γ-secretase assays detecting either Aβ38, Aβ40, or Aβ42 cleavage were performed similar as previously described (21, 36). Cleaved product was detected using ruthenylated antibodies that recognize specific APP cleavage sites (Aβ31-38*, G2-10*, or G2-11* antibody for Aβ38, Aβ40, or Aβ42 respectively). The Km and Vmax in the presence and absence of γ-secretase inhibitors were analyzed by non-linear curve fit using the software SigmaPlot 8.0 with the Michaelis-Menten equation (v=Vm [S]/(Km+[S]; v: initial rate; Vm: maximum velocity; Km: the Michaelis-Menten constant, S: substrate).

γ-secretase [3] = target: T1, γ-secretase; test: In vitro γ-secretase activity assay, Aβ42 production (ECL); assay type: biochemical; details: in vitro inhibition of γ-secretase activity that generates Aβ42; 2.5 hr at 37° C., ECL detection
Experimental: as §1, with “The potency of 7 unique coumarin-based γ-secretase inhibitors were evaluated for efficacy against γ-secretase-mediated production of Aβ40, Aβ42, Aβ38, and Notch. Additionally, the pan-GSI Compound E was also examined in these assays.” left out, “IC50 values are presented with standard deviation (n=3 for each data point).” left out, “(BioVeris).” for “(BioVeris). The selectivity ratio for Aβ42 inhibition over Aβ40 and Notch are indicated in the two far right columns.”
Briefly, recombinant peptide substrate was incubated with γ-secretase (40 μg/ml) in the presence or absence of test compound. […] The reaction was incubated for 2.5 hr at 37° C. and stopped by adding RIPA buffer (150 mM NaCl, 1.0% NP-40, 0.5% sodium deoxycholate, 0.1% SDS, 50 mM Tris HCl, pH 8.0). […] The amount of product was determined using synthetic peptide or recombinant standards.
as §2

γ-secretase [4] = target: T1, γ-secretase; details: reference (22); cited from earlier work
γ-secretase [5] = target: T1, γ-secretase; test: Inhibition kinetic analysis in the in vitro γ-secretase activity assay; assay type: biochemical; details: APP-transmembrane domain substrate
Experimental: FIG. 4. Kinetic analysis of allosteric GSIs and evaluation of their effect on the γ-secretase active site architecture. (a) Kinetic analysis of CS1 was performed using our modified version of a previously reported in vitro γ-secretase activity assay. The inhibition kinetics were analyzed by using a non-linear curve fit with the Michaelis-Menten equation. Upper right inset: we replotted slopes against the inhibitor concentrations after performing double reciprocal conversion. (b) Schematic representation of the allosteric binding of the di-coumarin compounds to γ-secretase. This binding ultimately causes an alteration at the active site of γ-secretase. Black rectangle represents the coumarin-dimer compound. (c) The binding of L458 to the active site of γ-secretase and its interaction at various subpockets within the enzyme. […]
as §2, with “The in vitro and cell γ-secretase assays detecting either Aβ38, Aβ40, or Aβ42 cleavage were performed similar as previously described (21, 36).” left out

γ-secretase active site = target: T2, γ-secretase active site (Homo sapiens, UniProt P49768); test: Photolabeling of the γ-secretase active site (PS1-NTF) in HeLa membrane with probes L646, GY4, JC8, L505; assay type: binding; details: L458 and Compound E at 2 μM, CS-1 up to 100 μM
T2 construct: endogenous in cells; host or cells: HeLa membrane
Experimental: FIG. 4. Kinetic analysis of allosteric GSIs and evaluation of their effect on the γ-secretase active site architecture. (a) Kinetic analysis of CS1 was performed using our modified version of a previously reported in vitro γ-secretase activity assay. The inhibition kinetics were analyzed by using a non-linear curve fit with the Michaelis-Menten equation. Upper right inset: we replotted slopes against the inhibitor concentrations after performing double reciprocal conversion. (b) Schematic representation of the allosteric binding of the di-coumarin compounds to γ-secretase. This binding ultimately causes an alteration at the active site of γ-secretase. Black rectangle represents the coumarin-dimer compound. (c) The binding of L458 to the active site of γ-secretase and its interaction at various subpockets within the enzyme. (d) Chemical structure of the four photoaffinity probes utilized in the characterization of CS-1 effect on active site architecture. Hydroxyethylamine and benzophenone moieties are marked by blue and red, respectively. (e) Evaluation of CS-1 effect on the photolabeling of four probes. […] (f) Evaluation of CS-2 effect on the active site photolabeling by L505 and GY4. (g) Effect of Compound E on active site photolabling. […] Blotting was performed for PS1-NTF. The photolabeling blots are representative and were performed in triplicate.
We hypothesized that the allosteric binding of the di-coumarin compounds alters the conformation of the active site of γ-secretase and thereby preferentially affects the Aβ42 site cleavage (FIG. 4b). This raised the technical issue of how to probe the contours of the enzymatic active site. Although the structure of γ-secretase has been determined by cryoelectron microscopy (23), the resolution attained is not sufficient to investigate subtle changes within the active site. Consequently, we developed a series of active-site directed inhibitors that incorporate a photoreactive benzophenone entity into varied positions. Using these photoreactive probes, we assessed the effect of the di-coumarin inhibitor binding on the active site of γ-secretase. Since the efficiency of photoinsertion depends on the orientation of the probe and the proximity of residues within the active site, conformational change of the active site can alter the orientation of the probe and contact residues and lead to altered cross-linking efficiencies. Therefore, multiple photoactivatable, active-site directed GSIs will provide a practical approach to evaluate the changes within the active site following allosteric di-coumarin binding.
L458 contains a hydroxyethylamine transition-state isostere that mimics the tetrahedral intermediate of aspartyl proteases and this moiety hydrogen bonds with the catalytic aspartate residues of γ-secretase (20). According to the nomenclature of Schechter and Berger (24), L458 contains the P2, P1, P1′, P2′ and P3′ residues that putatively bind to the S2, S1, S1′, S2′ and S3′ subsites, respectively, within the active site of γ-secretase (FIG. 4c). We have developed a series of biotinylated, photoactivatable inhibitors based on the core structure of L458 that allow us to probe the sub-pockets of the γ-secretase active site (3, 25-26). These inhibitors all have an individual benzophenone group incorporated into L458 at either the P2, P1, P1′, or P3′ position and are referred to as L646, GY4, JC8 and L505 (FIG. 4d). Each of these inhibitors interacts and labels the S2, S1, S1′, and S3′ subsites, respectively, within the γ-secretase complex (FIG. 4c-d).
HeLa membrane was incubated with CHAPSO detergent and photoaffinity probe in the presence or absence of excess L458 or CS-1. Labeled presenilin was isolated using streptavidin beads, separated by SDS-PAGE and subsequently western blotted using anti-PS1-NTF antibodies. Again, presenilin is believed to contain the active site of γ-secretase, therefore we examined PS1 photolabeling. […]

mode of inhibition against APP-TM substrate (γ-secretase [5])	effect on JC-8 photolabeling of PS1-NTF (S1′ subsite) (γ-secretase active site)	effect on L646 photolabeling of PS1-NTF (S2 subsite) (γ-secretase active site)	effect on GY-4 photolabeling of PS1-NTF (S1 subsite) (γ-secretase active site; CS-2 at 100 μM)	effect on L505 photolabeling of PS1-NTF (S3′ subsite) (γ-secretase active site; CS-2 at 100 μM)	Compound	amount of Aβ38 secreted from the cells [1]	amount of Aβ40 secreted from the cells [1]	amount of Aβ42 secreted from the cells [1]	IC50 (γ-secretase [2]; in vitro inhibition of γ-secretase activity that generates Aβ40, 2.5 hr at 37° C., ECL detection)	Aβ40/Aβ42 ratio (γ-secretase [2]; ratio of IC50 for Aβ40 to IC50 for Aβ42)	IC50 (γ-secretase [3])	mode of inhibition when the C100 substrate is used (γ-secretase [4])
					O=c1oc2ccccc2c(O)c1C(c1cc(F)c(F)c(F)c1)c1c(O)c2ccccc2oc1=O [Compound 37]	remain relatively constant	remain relatively constant	decrease	0.6 µM	3.0	0.2 µM	
competitive inhibitor	completely blocked	completely blocked	completely blocked	completely blocked	CC(C)C[C@H](NC(=O)[C@H](Cc1ccccc1)C[C@@H](O)[C@H](Cc1ccccc1)NC(=O)OC(C)(C)C)C(=O)N[C@@H](Cc1ccccc1)C(N)=O [L-685,458]							non-competitive inhibitor
